Data published in ChEMBL document CHEMBL1139432, “Aryl sulfones as novel bradykinin B1 receptor antagonists for treatment of chronic pain” (Bioorg Med Chem Lett, 2008).

Legend:
[1] = Metabolic stability in rat liver microsomes; assay type: ADME, Microsome; settings: read-out: Stability
[2] = Metabolic stability in human liver microsomes; assay type: ADME, Microsome; settings: read-out: Stability
[3] = target: T1, B1 bradykinin receptor (Homo sapiens, UniProt P46663); experiment: Antagonist activity at human bradykinin B1 receptor expressed in clone CHO-D-/aequorin cells by aquerin based assay; assay type: functional, cell-based
T1 sequence (P46663 whole entry): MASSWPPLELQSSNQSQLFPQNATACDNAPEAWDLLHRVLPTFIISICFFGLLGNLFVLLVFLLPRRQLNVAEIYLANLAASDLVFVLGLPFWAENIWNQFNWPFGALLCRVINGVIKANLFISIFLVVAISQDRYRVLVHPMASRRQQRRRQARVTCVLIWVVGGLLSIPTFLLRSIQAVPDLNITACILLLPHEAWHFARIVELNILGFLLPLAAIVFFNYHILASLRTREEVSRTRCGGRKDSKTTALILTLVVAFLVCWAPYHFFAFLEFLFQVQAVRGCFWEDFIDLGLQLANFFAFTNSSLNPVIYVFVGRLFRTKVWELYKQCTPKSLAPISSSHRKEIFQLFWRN

[4] = target: T1, B1 bradykinin receptor; experiment: Displacement of [3H]DAK from human bradykinin B1 receptor expressed in clone CHO-D-/aequorin cells; assay type: cell-based
[5] = target: T2, B1 bradykinin receptor (Oryctolagus cuniculus, UniProt P48748); experiment: Antagonist activity at rabbit bradykinin B1 receptor expressed in clone CHO-D-/aequorin cells by aquerin based assay; assay type: functional, cell-based
T2 sequence (P48748 whole entry): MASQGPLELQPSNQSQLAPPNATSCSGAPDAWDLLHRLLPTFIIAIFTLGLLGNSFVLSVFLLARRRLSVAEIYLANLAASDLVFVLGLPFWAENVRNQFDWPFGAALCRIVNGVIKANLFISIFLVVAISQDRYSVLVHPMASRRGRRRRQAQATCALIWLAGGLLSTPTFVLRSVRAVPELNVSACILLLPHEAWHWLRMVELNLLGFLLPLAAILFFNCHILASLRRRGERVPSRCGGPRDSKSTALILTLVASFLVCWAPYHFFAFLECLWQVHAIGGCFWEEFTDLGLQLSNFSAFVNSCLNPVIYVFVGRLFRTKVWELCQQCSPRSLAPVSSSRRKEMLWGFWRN

[6] = system: Oryctolagus cuniculus; experiment: Inhibition of des-Arg-Kallidin-induced hypotensive response in sc dosed rabbit; assay type: functional, organism-based; design: scale not given: the % may be the effect or the level left

Row | Compound | microsomal CLint [1] [µL/min/mg] | microsomal CLint [2] [µL/min/mg] | IC50 [3] [nM] | Ki [4] [nM] | IC50 [5] [nM] | Activity [6] [%]
1 | O=C(N[C@@H]1CCCc2cc(CN3CCCCC3)ccc21)[C@H](O)[C@H](O)CS(=O)(=O)c1ccccc1 | 50 | 319 | – | – | – | –
2 | O=C(N[C@@H]1CCCc2cc(CN3CCCCC3)ccc21)[C@H](O)[C@H](O)CS(=O)(=O)c1ccc(C(F)(F)F)cc1 | 50 | 50 | 44.9 | 48.4 | 210 | –
3 | O=C(C[C@H](O)CS(=O)(=O)c1ccc2ccccc2c1)N[C@@H]1CCCc2cc(CN3CCCCC3)ccc21 | 100 | 112 | 48.9 | 41.4 | – | –
4 | O=C(C[C@@H](O)CS(=O)(=O)c1ccc2ccccc2c1)N[C@@H]1CCCc2cc(CN3CCCCC3)ccc21 | – | – | 107 | 100 | – | –
5 | O=C(C[C@@H](NS(=O)(=O)c1ccc2ccccc2c1)c1ccccc1)N[C@@H]1CCCc2cc(CN3CCCCC3)ccc21 | 572 | 919 | – | – | – | –
6 | CC(C)(C)c1ccc(S(=O)(=O)C[C@@H](O)[C@@H](O)C(=O)N[C@@H]2CCCc3cc(CN4CCCCC4)ccc32)cc1 | 50 | 296 | 4.5 | 15.8 | 25.3 | –
7 | O=C(C[C@@H](NS(=O)(=O)c1cccc(C(F)(F)F)c1)c1ccc(F)cc1)N[C@@H]1CCOc2cc(CN3CCCCC3)ccc21 | – | – | – | – | – | 47
8 | Cc1ccc(S(=O)(=O)C[C@@H](O)[C@@H](O)C(=O)N[C@@H]2CCCc3cc(CN4CCCCC4)ccc32)cc1 | 50 | 50 | – | – | – | –

Further lines, with some results ahead:

Row | microsomal CLint [1] [µL/min/mg] | microsomal CLint [2] [µL/min/mg] | IC50 [3] [nM] | Ki [4] [nM] | IC50 [5] [nM] | Compound | Activity [6] [%]
9 | 237 | 216 | – | – | – | CO[C@H](CCS(=O)(=O)c1ccc2ccccc2c1)C(=O)N[C@@H]1CCCc2cc(CN3CCCCC3)ccc21 | –
10 | 100 | 50 | – | – | – | O=C(CCCS(=O)(=O)c1ccc2ccccc2c1)N[C@@H]1CCCc2cc(CN3CCCCC3)ccc21 | –
11 | 143 | 100 | 30.8 | 19.1 | – | O=C(N[C@@H]1CCCc2cc(CN3CCCCC3)ccc21)[C@@H](O)CCS(=O)(=O)c1ccc2ccccc2c1 | –
12 | 50 | 214 | – | – | – | O=C(N[C@@H]1CCCc2cc(CN3CCCCC3)ccc21)[C@H](O)[C@H](O)CS(=O)(=O)c1cccc(Cl)c1Cl | –
13 | 50 | 100 | 50.6 | 23.5 | – | O=C(N[C@@H]1CCCc2cc(CN3CCCCC3)ccc21)[C@H](O)CCS(=O)(=O)c1ccc2ccccc2c1 | –
14 | 167 | 744 | 13.7 | 1.5 | – | O=C(CC(CS(=O)(=O)c1ccc2ccccc2c1)c1ccccc1)N[C@@H]1CCCc2cc(CN3CCCCC3)ccc21 (stereo not given in full) | –
15 | 193 | 100 | 17.1 | 16.9 | 20.3 | O=C(N[C@@H]1CCCc2cc(CN3CCCCC3)ccc21)[C@H](O)[C@H](O)CS(=O)(=O)c1ccc(Cl)c(Cl)c1 | –
16 | 316 | 274 | – | – | – | CO[C@@H](CC(=O)N[C@@H]1CCCc2cc(CN3CCCCC3)ccc21)CS(=O)(=O)c1ccc2ccccc2c1 | –
17 | 139 | 180 | – | – | – | O=C(N[C@@H]1CCCc2cc(CN3CCCCC3)ccc21)[C@H](O)[C@H](O)CS(=O)(=O)c1cccc(Cl)c1 | –
